Assays:
[1] = system: T-Rex 293 cell line SC cells lacking increased expression of progesterone receptor isoform B protein; test: Cellular growth inhibition, T-Rex 293 SC cells without doxycycline; type: cell-based; conditions: not exposed to doxycycline, 72 hours, CellTiter-Glo 2.0
androgen receptor = target: T1, androgen receptor (Homo sapiens, UniProt P10275); test: Binding affinity to androgen receptor ([3H]methyltrienolone radioligand, cell cytosol); conditions: Table 6
T1 construct: endogenous in cells; host or cells: unnamed cells (cytosol fraction)
T1 sequence (P10275 1-920): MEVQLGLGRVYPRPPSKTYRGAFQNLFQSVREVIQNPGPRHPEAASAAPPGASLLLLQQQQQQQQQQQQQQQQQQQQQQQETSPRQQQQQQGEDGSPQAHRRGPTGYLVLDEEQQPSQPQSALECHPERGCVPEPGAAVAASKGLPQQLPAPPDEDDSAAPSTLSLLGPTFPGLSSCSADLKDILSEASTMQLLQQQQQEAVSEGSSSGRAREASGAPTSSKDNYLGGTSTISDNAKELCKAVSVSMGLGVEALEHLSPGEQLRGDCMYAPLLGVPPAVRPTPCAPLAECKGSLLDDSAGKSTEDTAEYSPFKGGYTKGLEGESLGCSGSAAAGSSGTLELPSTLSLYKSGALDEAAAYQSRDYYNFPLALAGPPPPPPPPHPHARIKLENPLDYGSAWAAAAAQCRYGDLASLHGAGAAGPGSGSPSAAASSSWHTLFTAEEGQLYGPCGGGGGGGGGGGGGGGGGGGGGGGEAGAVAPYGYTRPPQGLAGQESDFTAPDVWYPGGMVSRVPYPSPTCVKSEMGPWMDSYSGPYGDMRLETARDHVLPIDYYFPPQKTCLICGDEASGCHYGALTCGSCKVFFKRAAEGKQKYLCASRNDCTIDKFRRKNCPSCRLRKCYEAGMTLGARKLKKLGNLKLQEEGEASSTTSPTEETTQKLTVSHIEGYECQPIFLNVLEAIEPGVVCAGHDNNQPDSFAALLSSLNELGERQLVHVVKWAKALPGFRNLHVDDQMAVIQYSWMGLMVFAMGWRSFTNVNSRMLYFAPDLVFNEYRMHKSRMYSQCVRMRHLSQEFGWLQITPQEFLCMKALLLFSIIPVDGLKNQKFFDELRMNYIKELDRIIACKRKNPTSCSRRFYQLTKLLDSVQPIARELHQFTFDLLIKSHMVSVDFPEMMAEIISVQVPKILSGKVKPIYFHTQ
Description: Fractions of cell cytosol ([…]) were incubated for 24 hr at 4° C. with 1 nM [^3H]methyltrienolone in the absence or presence of the test compound in a buffer containing 25 mM Hepes-Tris (pH 7.4), 1 mM EDTA, 10 mM Na2MoO4, 2 mM DTT, 5 μM triamcinolone acetonide, and 10% glycerol. Nonspecific binding was determined in the presence of 1 μM testosterone. Following incubation, the samples were filtered rapidly under vacuum through glass fiber filters (GF/B, Packard) presoaked with 0.3% PEI and rinsed several times with ice-cold 50 mM Tris-HCl using a 96-sample cell harvester (Unifilter, Packard). The filters were dried then counted for radioactivity in a scintillation counter (Topcount, Packard) using a scintillation cocktail (Microscint 0, Packard). The results are expressed as a percent inhibition of the control radioligand specific binding. The standard reference compound is testosterone, which is tested in each experiment at several concentrations to obtain a competition curve from which its IC50 is calculated.

`CCc1cnn2c(NCc3ccc(=O)n(CCOCCOCCOCCOCCOCCOCCN(C)c4ncc(C(=O)N[C@H]5C(C)(C)[C@H](Oc6ccc(C#N)c(Cl)c6)C5(C)C)cn4)c3)cc(N3CCCC[C@H]3CCO)nc12` [Compound I-4, N-((1r,3r)-3-(3-chloro-4-cyanophenoxy)-2,2,4,4-tetramethylcyclobutyl)-2-((20-(5-(((3-ethyl-5-((S)-2-(2-hydroxyethyl)piperidin-1-yl)pyrazolo[1,5-a]pyrimidin-7-yl)amino)methyl)-2-oxopyridin-1(2H)-yl)-3,6,9,12,15,18-hexaoxaicosyl)(methyl)amino)pyrimidine-5-carboxamide] gave a GI50 [1] of under 0.5 µM and a Kd (androgen receptor) of under 0.05 µM.
`CCc1cnn2c(NCc3ccc(OCCOCCOCCOCCOCCOCCOCCN(C)c4ncc(C(=O)N[C@H]5C(C)(C)[C@H](Oc6ccc(C#N)c(Cl)c6)C5(C)C)cn4)nc3)cc(N3CCCC[C@H]3CCO)nc12` [Compound I-5] was tested, and the GI50 [1] was 0.5 to 1.5 µM and the Kd (androgen receptor) was under 0.05 µM.
`CCc1cnn2c(NCc3ccc(OCCOC4CCN(c5ncc(C(=O)N[C@H]6C(C)(C)[C@H](Oc7ccc(C#N)c(Cl)c7)C6(C)C)cn5)CC4)nc3)cc(N3CCCC[C@H]3CCO)nc12` [Compound I-7, N-((1r,3r)-3-(3-chloro-4-cyanophenoxy)-2,2,4,4-tetramethylcyclobutyl)-2-(4-(2-((5-(((3-ethyl-5-((S)-2-(2-hydroxyethyl)piperidin-1-yl)pyrazolo[1,5-a]pyrimidin-7-yl)amino)methyl)pyridin-2-yl)oxy)ethoxy)piperidin-1-yl)pyrimidine-5-carboxamide] showed a GI50 [1] of under 0.5 µM and a Kd (androgen receptor) of under 0.05 µM.
For `CCc1cnn2c(NCc3ccc(OCCOCCOCCOC4CCN(c5ncc(C(=O)N[C@H]6C(C)(C)[C@H](Oc7ccc(C#N)c(Cl)c7)C6(C)C)cn5)CC4)nc3)cc(N3CCCC[C@H]3CCO)nc12` [Compound I-8], the GI50 [1] was under 0.5 µM and the Kd (androgen receptor) was under 0.05 µM.
Work on `CC1(C)[C@H](NC(=O)c2cnc(N3CCC(OCCNS(=O)(=O)c4ccc(Nc5ncc(Br)c(Nc6cccc(F)c6C(N)=O)n5)cc4)CC3)nc2)C(C)(C)[C@H]1Oc1ccc(C#N)c(Cl)c1` [Compound I-13, 2-(4-(2-((4-((5-bromo-4-((2-carbamoyl-3-fluorophenyl)amino)pyrimidin-2-yl)amino)phenyl)sulfonamido)ethoxy)piperidin-1-yl)-N-((1 r,3r)-3-(3-chloro-4-cyanophenoxy)-2,2,4,4-tetramethylcyclobutyl)pyrimidine-5-carboxamide] yielded a GI50 [1] of over 3 µM and a Kd (androgen receptor) of under 0.05 µM.
Work on `CCc1cnn2c(NCc3ccc(COCCN4CCN(CC5CCN(c6ncc(C(=O)N[C@H]7C(C)(C)[C@H](Oc8ccc(C#N)c(Cl)c8)C7(C)C)cn6)CC5)CC4)nc3)cc(N3CCCC[C@H]3CCO)nc12` [Compound I-42] yielded a GI50 [1] of under 0.5 µM and a Kd (androgen receptor) of under 0.05 µM.
Work on `CCc1cnn2c(NCc3ccc(OCCOCCOCCOC4CCN(c5ccc(C(=O)N[C@H]6C(C)(C)[C@H](Oc7ccc(C#N)c(Cl)c7)C6(C)C)nn5)CC4)nc3)cc(N3CCCC[C@H]3CCO)nc12` [Compound I-44, N-((1r,3r)-3-(3-chloro-4-cyanophenoxy)-2,2,4,4-tetramethylcyclobutyl)-6-(4-(2-(2-(2-((5-(((3-ethyl-5-((S)-2-(2-hydroxyethyl)piperidin-1-yl)pyrazolo[1,5-a]pyrimidin-7-yl)amino)methyl)pyridin-2-yl)oxy)ethoxy)ethoxy)ethoxy)piperidin-1-yl)pyridazine-3-carboxamide] yielded a GI50 [1] of under 0.5 µM and a Kd (androgen receptor) of 0.05 to 0.5 µM.
With `CCc1cnn2c(NCc3ccc(OCCCN4CCN(CC5CCN(c6ccc(C(=O)N[C@H]7C(C)(C)[C@H](Oc8ccc(C#N)c(Cl)c8)C7(C)C)cn6)CC5)CC4)nc3)cc(N3CCCC[C@@H]3CCO)nc12` [Compound I-55, N-((1r,3r)-3-(3-chloro-4-cyanophenoxy)-2,2,4,4-tetramethylcyclobutyl)-6-(4-((4-(3-((5-(((3-ethyl-5-((R)-2-(2-hydroxyethyl)piperidin-1-yl)pyrazolo[1,5-a]pyrimidin-7-yl)amino)methyl)pyridin-2-yl)oxy)propyl)piperazin-1-yl)methyl)piperidin-1-yl)nicotinamide] the GI50 [1] was under 0.5 µM and the Kd (androgen receptor) was under 0.05 µM.
Work on `Cc1ncc(-c2nc(Nc3ccc(C(=O)N4CC[C@H](N(C)CCOCCOCCOCCOCCOC5CCN(c6ncc(C(=O)N[C@H]7C(C)(C)[C@H](Oc8ccc(C#N)c(Cl)c8)C7(C)C)cn6)CC5)C4)cc3)ncc2F)n1C(C)C` [Compound I-97] yielded a GI50 [1] of 1.5 to 3 µM.
`CCc1cnn2c(NCc3ccc(OCCCN4CCN(CC5CCN(c6ccc(C(=O)N[C@H]7C(C)(C)[C@H](Oc8ccc(C#N)c(Cl)c8)C7(C)C)cc6)CC5)CC4)nc3)cc(N3CCCC[C@@H]3CCO)nc12` [II-1, N-((1r,3r)-3-(3-chloro-4-cyanophenoxy)-2,2,4,4-tetramethylcyclobutyl)-4-(4-((4-(3-((5-(((3-ethyl-5-((R)-2-(2-hydroxyethyl)piperidin-1-yl)pyrazolo[1,5-a]pyrimidin-7-yl)amino)methyl)pyridin-2-yl)oxy)propyl)piperazin-1-yl)methyl)piperidin-1-yl)benzamide] was tested, and the GI50 [1] was under 0.5 µM and the Kd (androgen receptor) was under 0.05 µM.

— patent US20260159520A1, “HETEROBIFUNCTIONAL COMPOUNDS AND METHODS OF TREATING DISEASE” (Halda Therapeutics OpCo, Inc., priority 2022, published 2026)
